Experiments:
[1] = molecular target: Dopamine receptor D2L/neurotensin receptor NTS1 (Homo sapiens) (UniProt P14416+P30989); test: Ratio of Ki for D2L/NTS1 (unknown origin) expressed in HEK293 cell membrane in presence of neurotensin to Ki for D2L/NTS1 (unknown origin) expressed in HEK293 cell membrane in absence of neurotensin; format: cell-based
[2] = test system: HEK293; test: Selectivity ratio of EC50 for mu/kappa opioid receptor in HEK293 cells to EC50 for mu opioid receptor in HEK293 cells; format: cell-based; conditions: Homo sapiens

## CCCN(CCCCNC(=O)c1cnn2ccccc12)C1Cc2ccccc2C1
[1]
  Ratio Ki: 34

## O=C(N[C@@H]1CC[C@@]2(O)[C@H]3Cc4ccc(O)c5c4[C@@]2(CCN3CC2CC2)[C@H]1O5)c1ccc2ccccc2c1
[2]
  Ratio EC50: 1000

— ChEMBL document CHEMBL2417521, “Class A G-protein-coupled receptor (GPCR) dimers and bivalent ligands” (J Med Chem, 2013)
